Target: GCN2 (Homo sapiens (Human), UniProt Q9P2K8)
Assay: GCN2 Biochemical Assay (TR-FRET, GFP-eIF2S1 substrate phosphorylation)
Details: read-out: IC50 (GCN2 Inhibitory Activity)
How it was run: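 In-house GCN2 (1.6 nM 2× stock) phosphorylates GFP-eIF2S1 (50 nM 2× stock) with ATP (0.2 mM 2× stock) and tRNA, pH 7.5, 70 min at room temperature; 10-point 3.16-fold compound series. TR-FRET detection with Tb-anti-phospho antibody, 2–3 h, Ex 340/Em 490/520 nm; artifact plate spiked with phospho-substrate.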

Sequence of GCN2 (Q9P2K8 whole entry): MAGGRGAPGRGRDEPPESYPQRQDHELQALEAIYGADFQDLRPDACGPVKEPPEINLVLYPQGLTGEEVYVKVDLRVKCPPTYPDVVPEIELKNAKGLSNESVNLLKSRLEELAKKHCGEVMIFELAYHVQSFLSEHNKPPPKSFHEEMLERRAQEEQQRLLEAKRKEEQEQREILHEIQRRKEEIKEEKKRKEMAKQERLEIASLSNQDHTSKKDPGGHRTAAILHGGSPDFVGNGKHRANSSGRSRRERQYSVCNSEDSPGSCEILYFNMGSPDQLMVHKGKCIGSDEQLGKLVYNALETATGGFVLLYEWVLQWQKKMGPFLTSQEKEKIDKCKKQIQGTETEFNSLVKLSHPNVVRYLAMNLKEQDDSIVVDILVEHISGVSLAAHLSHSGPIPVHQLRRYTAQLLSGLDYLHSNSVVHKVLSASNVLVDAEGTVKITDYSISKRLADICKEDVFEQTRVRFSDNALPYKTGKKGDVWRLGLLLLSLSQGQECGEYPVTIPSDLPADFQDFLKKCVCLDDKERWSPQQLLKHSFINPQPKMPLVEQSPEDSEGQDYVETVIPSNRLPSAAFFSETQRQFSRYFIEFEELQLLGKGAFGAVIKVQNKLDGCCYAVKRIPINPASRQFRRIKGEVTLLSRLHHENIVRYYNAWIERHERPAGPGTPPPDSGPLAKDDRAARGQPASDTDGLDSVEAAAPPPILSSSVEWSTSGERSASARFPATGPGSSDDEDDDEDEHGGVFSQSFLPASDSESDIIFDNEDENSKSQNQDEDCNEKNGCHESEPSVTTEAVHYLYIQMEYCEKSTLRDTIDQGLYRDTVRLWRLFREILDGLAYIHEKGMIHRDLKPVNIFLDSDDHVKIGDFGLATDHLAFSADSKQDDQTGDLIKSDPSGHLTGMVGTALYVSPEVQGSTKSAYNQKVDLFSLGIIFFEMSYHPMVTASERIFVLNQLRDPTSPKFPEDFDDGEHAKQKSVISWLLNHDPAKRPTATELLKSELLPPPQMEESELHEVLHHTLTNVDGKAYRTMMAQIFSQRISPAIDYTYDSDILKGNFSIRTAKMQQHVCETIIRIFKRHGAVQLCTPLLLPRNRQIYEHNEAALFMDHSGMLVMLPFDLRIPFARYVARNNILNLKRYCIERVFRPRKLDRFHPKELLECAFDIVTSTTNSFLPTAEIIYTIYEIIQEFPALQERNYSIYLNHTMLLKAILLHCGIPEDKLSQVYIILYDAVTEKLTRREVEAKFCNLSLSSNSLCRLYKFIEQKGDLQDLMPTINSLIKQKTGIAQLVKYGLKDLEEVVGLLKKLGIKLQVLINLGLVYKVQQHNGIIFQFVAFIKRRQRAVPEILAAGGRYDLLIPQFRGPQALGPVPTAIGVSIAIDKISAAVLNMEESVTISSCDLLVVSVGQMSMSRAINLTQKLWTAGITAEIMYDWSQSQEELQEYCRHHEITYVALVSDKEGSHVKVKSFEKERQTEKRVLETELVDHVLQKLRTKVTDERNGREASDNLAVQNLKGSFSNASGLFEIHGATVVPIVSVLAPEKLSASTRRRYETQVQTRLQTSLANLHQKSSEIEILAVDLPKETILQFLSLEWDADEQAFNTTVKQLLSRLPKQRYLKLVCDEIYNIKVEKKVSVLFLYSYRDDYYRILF

IC50 [nM] | Compound
100 to 1000 | Cc1cnc(Nc2cc(C)n(C)n2)nc1-c1c[nH]c2c(NC(=O)CN3CC[C@H](Oc4cccc(N)c4)C3)cccc12 [Example 89]
< 10 | Cc1cnc(Nc2cc(C)n(C)n2)nc1-c1c[nH]c2c(NC(=O)CN3CC[C@H](Oc4ccnc(N)c4)C3)cccc12 [Example 90]
10 to 100 | Cc1cnc(Nc2cc(C)n(C)n2)nc1-c1c[nH]c2c(NC(=O)CN3CC[C@H](Oc4ccnc(Cl)c4)C3)cccc12 [Example 91]
< 10 | Cc1cnc(Nc2cc(C)n(C)n2)nc1-c1c[nH]c2c(NC(=O)CN3CC[C@H](Oc4cncc(N)n4)C3)cccc12 [Example 92]
10 to 100 | Cc1cnc(Nc2cc(C)n(C)n2)nc1-c1c[nH]c2c(NC(=O)CN3CC[C@H](Oc4ncc(F)cn4)C3)cccc12 [Example 93]
10 to 100 | Cc1cnc(Nc2cc(C)n(C)n2)nc1-c1c[nH]c2c(NC(=O)CN3CC[C@H](Oc4ncnc(Cl)c4C)C3)cccc12 [Example 94, (S)-2-(3-((6-chloro-5-methylpyrimidin-4-yl)oxy)pyrrolidin-1-yl)-N-(3-(2-((1,5-dimethyl-1H-pyrazol-3-yl)amino)-5-methylpyrimidin-4-yl)-1H-indol-7-yl)acetamide]
< 10 | Cc1cc(O[C@H]2CCN(CC(=O)Nc3cccc4c(-c5nc(Nc6cc(C)n(C)n6)ncc5C)c[nH]c34)C2)nc(N)n1 [Example 95, (S)-2-(3-((2-amino-6-methylpyrimidin-4-yl)oxy)pyrrolidin-1-yl)-N-(3-(2-((1,5-dimethyl-1H-pyrazol-3-yl)amino)-5-methylpyrimidin-4-yl)-1H-indol-7-yl)acetamide]
10 to 100 | Cc1cnc(Nc2cc(C)n(C)n2)nc1-c1c[nH]c2c(NC(=O)CN3CC[C@H](Oc4nc(Cl)ncc4N)C3)cccc12 [Example 96, (S)-2-(3-((5-amino-2-chloropyrimidin-4-yl)oxy)pyrrolidin-1-yl)-N-(3-(2-((1,5-dimethyl-1H-pyrazol-3-yl)amino)-5-methylpyrimidin-4-yl)-1H-indol-7-yl)acetamide]
10 to 100 | Cc1ncc(Br)c(O[C@H]2CCN(CC(=O)Nc3cccc4c(-c5nc(Nc6cc(C)n(C)n6)ncc5C)c[nH]c34)C2)n1 [Example 97, (S)-2-(3-((5-bromo-2-methylpyrimidin-4-yl)oxy)pyrrolidin-1-yl)-N-(3-(2-((1,5-dimethyl-1H-pyrazol-3-yl)amino)-5-methylpyrimidin-4-yl)-1H-indol-7-yl)acetamide]
100 to 1000 | Cc1cnc(Nc2cc(C)n(C)n2)nc1-c1c[nH]c2c(NC(=O)CN3CC[C@H](Oc4cc(-c5cc(Cl)ccc5F)nc(N)n4)C3)cccc12 [Example 98, (S)-2-(3-((2-amino-6-(5-chloro-2-fluorophenyl)pyrimidin-4-yl)oxy)pyrrolidin-1-yl)-N-(3-(2-((1,5-dimethyl-1H-pyrazol-3-yl)amino)-5-methylpyrimidin-4-yl)-1H-indol-7-yl)acetamide]
10 to 100 | Cc1cnc(Nc2cc(C)n(C)n2)nc1-c1c[nH]c2c(NC(=O)CN3CC[C@H](Oc4cc(C(F)(F)F)nc(N)n4)C3)cccc12 [Example 99, (S)-2-(3-((2-amino-6-(trifluoromethyl)pyrimidin-4-yl)oxy)pyrrolidin-1-yl)-N-(3-(2-((1,5-dimethyl-1H-pyrazol-3-yl)amino)-5-methylpyrimidin-4-yl)-1H-indol-7-yl)acetamide]
100 to 1000 | Cc1cnc(Nc2cc(C)n(C)n2)nc1-c1c[nH]c2c(NC(=O)CN3CC[C@H](Oc4ccc(-c5ccccc5)cc4)C3)cccc12 [Example 100, (S)-2-(3-([1,1′-biphenyl]-4-yloxy)pyrrolidin-1-yl)-N-(3-(2-((1,5-dimethyl-1H-pyrazol-3-yl)amino)-5-methylpyrimidin-4-yl)-1H-indol-7-yl)acetamide]
> 1000 | Cc1cnc(Nc2cc(C)n(C)n2)nc1-c1c[nH]c2c(NC(=O)CN3CC[C@H](Oc4ccc(C(C)(C)c5ccccc5)cc4)C3)cccc12 [Example 101, (S)-N-(3-(2-((1,5-dimethyl-1H-pyrazol-3-yl)amino)-5-methylpyrimidin-4-yl)-1H-indol-7-yl)-2-(3-(4-(2-phenylpropan-2-yl)phenoxy)pyrrolidin-1-yl)acetamide]
10 to 100 | CCCCCc1cnc(O[C@H]2CCN(CC(=O)Nc3cccc4c(-c5nc(Nc6cc(C)n(C)n6)ncc5C)c[nH]c34)C2)nc1 [Example 102, (S)-N-(3-(2-((1,5-dimethyl-1H-pyrazol-3-yl)amino)-5-methylpyrimidin-4-yl)-1H-indol-7-yl)-2-(3-((5-pentylpyrimidin-2-yl)oxy)pyrrolidin-1-yl)acetamide]
10 to 100 | Cc1cnc(Nc2cc(C)n(C)n2)nc1-c1c[nH]c2c(NC(=O)CN3CC[C@H](Oc4ccc(CN5CCN(C)CC5)cc4)C3)cccc12 [Example 103, (S)-N-(3-(2-((1,5-dimethyl-1H-pyrazol-3-yl)amino)-5-methylpyrimidin-4-yl)-1H-indol-7-yl)-2-(3-(4-((4-methylpiperazin-1-yl)methyl)phenoxy)pyrrolidin-1-yl)acetamide]
< 10 | Cc1cnc(Nc2cc(C)n(C)n2)nc1-c1c[nH]c2c(NC(=O)CN3CC[C@H](Oc4ccnn4C)C3)cccc12 [Example 104, (S)-N-(3-(2-((1,5-dimethyl-1H-pyrazol-3-yl)amino)-5-methylpyrimidin-4-yl)-1H-indol-7-yl)-2-(3-((1-methyl-1H-pyrazol-5-yl)oxy)pyrrolidin-1-yl)acetamide]
< 10 | Cc1cnc(Nc2cc(C)n(C)n2)nc1-c1c[nH]c2c(NC(=O)CN3CC[C@H](Oc4ccn(C)n4)C3)cccc12 [Example 105, (S)-N-(3-(2-((1,5-dimethyl-1H-pyrazol-3-yl)amino)-5-methylpyrimidin-4-yl)-1H-indol-7-yl)-2-(3-((1-methyl-1H-pyrazol-3-yl)oxy)pyrrolidin-1-yl)acetamide]
100 to 1000 | COC(=O)c1sc2ccccc2c1O[C@H]1CCN(CC(=O)Nc2cccc3c(-c4nc(Nc5cc(C)n(C)n5)ncc4C)c[nH]c23)C1 [Example 106, methyl (S)-3-((1-(2-((3-(2-((1,5-dimethyl-1H-pyrazol-3-yl)amino)-5-methylpyrimidin-4-yl)-1H-indol-7-yl)amino)-2-oxoethyl)pyrrolidin-3-yl)oxy)benzo[b]thiophene-2-carboxylate]
< 10 | COC(=O)c1sccc1O[C@H]1CCN(CC(=O)Nc2cccc3c(-c4nc(Nc5cc(C)n(C)n5)ncc4C)c[nH]c23)C1 [Example 107, methyl (S)-3-((1-(2-((3-(2-((1,5-dimethyl-1H-pyrazol-3-yl)amino)-5-methylpyrimidin-4-yl)-1H-indol-7-yl)amino)-2-oxoethyl)pyrrolidin-3-yl)oxy)thiophene-2-carboxylate]
< 10 | Cc1cnc(Nc2cc(C)n(C)n2)nc1-c1c[nH]c2c(NC(=O)CN3CC[C@H](Oc4ccsc4C(=O)O)C3)cccc12 [Example 108, (S)-3-((1-(2-((3-(2-((1,5-dimethyl-1H-pyrazol-3-yl)amino)-5-methylpyrimidin-4-yl)-1H-indol-7-yl)amino)-2-oxoethyl)pyrrolidin-3-yl)oxy)thiophene-2-carboxylic acid]
< 10 | Cc1cnc(Nc2cc(C)n(C)n2)nc1-c1c[nH]c2c(NC(=O)CN3CC[C@H](Oc4ccsc4C(N)=O)C3)cccc12 [Example 109, (S)-3-((1-(2-((3-(2-((1,5-dimethyl-1H-pyrazol-3-yl)amino)-5-methylpyrimidin-4-yl)-1H-indol-7-yl)amino)-2-oxoethyl)pyrrolidin-3-yl)oxy)thiophene-2-carboxamide]
< 10 | CNC(=O)c1sccc1O[C@H]1CCN(CC(=O)Nc2cccc3c(-c4nc(Nc5cc(C)n(C)n5)ncc4C)c[nH]c23)C1 [Example 110, (S)-3-((1-(2-((3-(2-((1,5-dimethyl-1H-pyrazol-3-yl)amino)-5-methylpyrimidin-4-yl)-1H-indol-7-yl)amino)-2-oxoethyl)pyrrolidin-3-yl)oxy)-N-methylthiophene-2-carboxamide]
< 10 | Cc1cnc(Nc2cc(C)n(C)n2)nc1-c1c[nH]c2c(NC(=O)CN3CC[C@H](Oc4ccsc4C(=O)NC4CC4)C3)cccc12 [Example 111, (S)-N-cyclopropyl-3-((1-(2-((3-(2-((1,5-dimethyl-1H-pyrazol-3-yl)amino)-5-methylpyrimidin-4-yl)-1H-indol-7-yl)amino)-2-oxoethyl)pyrrolidin-3-yl)oxy)thiophene-2-carboxamide]
10 to 100 | Cc1cc(O[C@H]2CCN(CC(=O)Nc3cccc4c(-c5nc(Nc6cc(C)n(C)n6)ncc5C)c[nH]c34)C2)no1 [Example 112, (S)-N-(3-(2-((1,5-dimethyl-1H-pyrazol-3-yl)amino)-5-methylpyrimidin-4-yl)-1H-indol-7-yl)-2-(3-((5-methylisoxazol-3-yl)oxy)pyrrolidin-1-yl)acetamide]
10 to 100 | Cc1cnc(Nc2cc(C)n(C)n2)nc1-c1c[nH]c2c(NC(=O)CN3CC[C@H](Oc4noc5ccccc45)C3)cccc12 [Example 113, (S)-2-(3-(benzo[d]isoxazol-3-yloxy)pyrrolidin-1-yl)-N-(3-(2-((1,5-dimethyl-1H-pyrazol-3-yl)amino)-5-methylpyrimidin-4-yl)-1H-indol-7-yl)acetamide]
10 to 100 | Cc1cnc(Nc2cc(C)n(C)n2)nc1-c1c[nH]c2c(NC(=O)CN3CC[C@H](Oc4ccsn4)C3)cccc12 [Example 114, (S)-N-(3-(2-((1,5-dimethyl-1H-pyrazol-3-yl)amino)-5-methylpyrimidin-4-yl)-1H-indol-7-yl)-2-(3-(isothiazol-3-yloxy)pyrrolidin-1-yl)acetamide]
10 to 100 | Cc1cnc(Nc2cc(C)n(C)n2)nc1-c1c[nH]c2c(NC(=O)CN3CC[C@H](Oc4ccsc4C)C3)cccc12 [Example 115, (S)-N-(3-(2-((1,5-dimethyl-1H-pyrazol-3-yl)amino)-5-methylpyrimidin-4-yl)-1H-indol-7-yl)-2-(3-((2-methylthiophen-3-yl)oxy)pyrrolidin-1-yl)acetamide]

Reference: patent US20240025884A1 (Dong-A ST Co., Ltd., priority 2022, published 2024)
